Source: ChEMBL document CHEMBL1156271, “Discovery and SAR of novel pyrazole-based thioethers as cathepsin S inhibitors: part 1” (Bioorg Med Chem Lett, 2010)

molecular target: T1, Cathepsin S (Homo sapiens, UniProt P25774); test: Inhibition of cathepsin S in human JY cells assessed as inhibition of invariant chain degradation; type: cell-based
T1 sequence (P25774 whole entry): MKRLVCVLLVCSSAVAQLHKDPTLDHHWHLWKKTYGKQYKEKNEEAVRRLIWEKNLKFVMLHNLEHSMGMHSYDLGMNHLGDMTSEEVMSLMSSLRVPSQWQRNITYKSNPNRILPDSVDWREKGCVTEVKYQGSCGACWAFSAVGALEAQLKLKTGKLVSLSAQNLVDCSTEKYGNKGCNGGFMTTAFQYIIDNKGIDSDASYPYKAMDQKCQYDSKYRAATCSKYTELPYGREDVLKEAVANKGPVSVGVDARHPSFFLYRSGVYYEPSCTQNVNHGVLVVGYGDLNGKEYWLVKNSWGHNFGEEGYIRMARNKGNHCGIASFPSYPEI

SMILES	IC50
CS(=O)(=O)N1CCc2c(c(-c3ccc(C(F)(F)F)c(SCCN4CCCCC4)c3)nn2CCCN2CCC(N3CCCC3)CC2)C1	320 nM
CS(=O)(=O)N1CCc2c(c(-c3ccc(C(F)(F)F)c(SCCN4CCCCC4)c3)nn2CCCN2CCCC2)C1	470 nM
CS(=O)(=O)N1CCc2c(c(-c3ccc(C(F)(F)F)c(SCCN4CCC(c5ccccc5)CC4)c3)nn2CCCN2CCC(N3CCCC3=O)CC2)C1	950 nM
CS(=O)(=O)N1CCc2c(c(-c3ccc(C(F)(F)F)c(SCCNCc4ccccc4)c3)nn2CCCN2CCC(N3CCCC3=O)CC2)C1	460 nM
CN1CCN(CCSc2cc(-c3nn(CCCN4CCC(N5CCCC5=O)CC4)c4c3CN(S(C)(=O)=O)CC4)ccc2C(F)(F)F)CC1	130 nM
CS(=O)(=O)N1CCc2c(c(-c3ccc(C(F)(F)F)c(SCCN4CCOCC4)c3)nn2CCCN2CCC(N3CCCC3=O)CC2)C1	680 nM
CS(=O)(=O)N1CCc2c(c(-c3ccc(C(F)(F)F)c(SCCN4CCC5CCCCC5C4)c3)nn2CCCN2CCC(N3CCCC3=O)CC2)C1 (centres undefined)	460 nM
CS(=O)(=O)N1CCc2c(c(-c3ccc(C(F)(F)F)c(SCCN4CCCCC4)c3)nn2CCCN2CCOCC2)C1	3570 nM

The next lines start with the values.

IC50	SMILES
810 nM	CC1CCN(CCSc2cc(-c3nn(CCCN4CCC(N5CCCC5=O)CC4)c4c3CN(S(C)(=O)=O)CC4)ccc2C(F)(F)F)CC1
350 nM	CS(=O)(=O)N1CCc2c(c(-c3ccc(C(F)(F)F)c(SCCN4CCC(O)CC4)c3)nn2CCCN2CCC(N3CCCC3=O)CC2)C1
80 nM	CS(=O)(=O)N1CCc2c(c(-c3ccc(C(F)(F)F)c(SCCN4CCCC4)c3)nn2CCCN2CCC(N3CCCC3=O)CC2)C1
330 nM	CC(C)(C)C1CCN(CCSc2cc(-c3nn(CCCN4CCC(N5CCCC5=O)CC4)c4c3CN(S(C)(=O)=O)CC4)ccc2C(F)(F)F)CC1

molecular target: T1, Cathepsin S; test: Inhibition of human cathepsin S

SMILES	IC50
CS(=O)(=O)N1CCc2c(c(-c3ccc(Cl)c(SCCO)c3)nn2CCCN2CCOCC2)C1	960 nM
CS(=O)(=O)N1CCc2c(c(-c3ccc(C(F)(F)F)c(SCCN4CCC5CCCCC5C4)c3)nn2CCCN2CCC(N3CCCC3=O)CC2)C1 (centres undefined)	55 nM
